Literature values in PMC7599555 (Biomedicines, 2020).

Test system: TTX-sensitive channels; NaV1.8

## NC1=N[C@H](O)[C@H]2[C@H]3O[C@]4(O)O[C@@H]([C@@H](O)[C@@]2(N1)[C@@H]4O)[C@]3(O)CO [TTX, tetrodotoxin]
  inhibition of TTX-sensitive channels and NaV1.8: fully inhibits TTX-sensitive channels but not NaV1.8
